In patent publication US6887879B2, “Pharmaceutical combination of antiviral agents” (priority 1999, dated 2005):
Like-named read-outs stand apart in the source and are kept apart here.

Experiments:
[1] = Cytotoxicity, [3H]-thymidine uptake, HSF; type: cell-based; conditions: human, human skin fibroblasts (HSF)
Experimental: (§1) The cellular toxicity of the BCH compounds were assessed on various cells using [^3H]-thymidine uptake. The various cells, including Molt-4, HT1080, DU-145, HepG 2 and HSF, were plated at a concentration of 1-2×10^3 cells per well (96 well plates). However, PHA-stimulated PBMCs were cultured at a concentration of 4×10^4. After a 24 hr incubation period, 10-fold serial diluted compounds (10^−4 M to 10^−10 M) were added to the culture medium and the cells were further incubated for 72 hrs. [^3H]-thymidine was added during the final 18 hr incubation period. After incubation with the [^3H]-thymidine, the cells were washed once with PBS, treated with trypsin it the cells were adherent, and then resuspended in water (hypotonic lysing of cells) The cellular extract was applied directly to a Tomtec Harvester 96. Using this instrument the extracted DNA is adsorbed onto filters, washed and the incorporated [^3H]-thymidine is then counted.

[2] = Cytotoxicity, [3H]-thymidine uptake, Molt-4; type: cell-based; conditions: human, Molt-4 cells
Experimental: as §1

[3] = Cytotoxicity, [3H]-thymidine uptake, HT-1080; type: cell-based; conditions: human, HT-1080 cells
Experimental: as §1

[4] = Cytotoxicity, [3H]-thymidine uptake, DU145; type: cell-based; conditions: human, DU145 cells
Experimental: as §1

HIV-1IIIB = assay: Anti-HIV-1 antiviral assay, laboratory strain HIV-1IIIB, RT activity in culture supernatants
Experimental: Most experiments were performed with a laboratory strain HIV-1III. […] The cells were incubated with virus using the indicated multiplicity of infection (MOI) for 2-3 hrs. The MOI used for each experiment was dependent upon the cell line and virus strain used, and was generally in the range of 0.005 to 0.5. For example, in assays performed using the established cell line MT-2, HIV-1IIIB at an MOI of 0.005 was used to infect cells. The unbound virus was then removed by washing the cells, followed by plating the cells into a 96-well plate. The infected cells were cultured in the presence of a serial concentrations of the test compound for 5-7 days. The anti-HIV-1 efficacy was determined by testing for HIV-1 RT activity in the cell culture supernatants. All assays were performed in duplicate and at least two independent experiments were performed. […] The susceptibilities of the HIV-1 variants to antiretroviral agents are expressed as the mean of the EC50 determinations.

[5] = Cytotoxicity, [3H]-thymidine uptake, HepG2; type: cell-based; conditions: human, HepG2 cells
Experimental: as §1

[6] = Cytotoxicity, WST-1 cell viability assay; type: cell-based, human; conditions: human, CBMCs, MT-2, H9, Jurkat and U937 cells; WST-1 cell viability assay
Experimental: The cellular toxicity of the compounds was also tested by WST-1 staining through assessing proliferation of MT-2, H9, Jurkat, U937, and CBMCs. The established cell lines were cultured in RPMI medium in 96-well plates at a density of 5×10^4 cells/well while CBMCs were plated at a concentration of 0.5×10^6/well. A 10-fold serial diluted (10^−4−10^−7 M) compound was added at day zero. At day 4, the cells were passaged by changing half medium containing appropriately diluted compound. The cell activities were assessed at day 7 using the WST-1 reagent (Boehringer Mannheim) following the protocol provided by the supplier.

wt HIV-1 RT [7] = target: T1, wt HIV-1 RT (Human immunodeficiency virus type 1 group M subtype B, UniProt P04585); assay: RT inhibition assay, RNA dependent DNA polymerase activity; type: biochemical
T1 construct: Wild type (wt) version of recombinant HIV-1 RT were expressed with a histidine tag; histidine tag; made in house; host or cells: E. coli
Experimental: Wild type (wt) version of recombinant HIV-1 RT were expressed with a histidine tag in an E. coli protein expression system.
RT inhibition assay. The inhibition of HIV-1 RT RNA dependent DNA polymerase activity of DXG-TP was assessed under steady-state enzymatic kinetics by employing homopolymeric RNA templates/DNA primers (T/P) and a heteropolymeric RNA template/DNA primer. The heteropolymeric RNA template contains the HIV-1 primer binding sequence, US and R regions (designated as HIV-PBS). […] The oligodeoxynucleotide primer (dPR) is an 18-mer (5′-[…]-3′) which is complementary to the HIV-1 primer binding sequence. […] The reverse transcription reaction contained final concentrations of 50 mM Tris-HCl, pH 7.8, 60 mM KCl, 10 mM MgCl2, 0.1 U/ml homopolymeric T/P and 5 μM [^3H]dNTP substrate or 25 nM HIV-PBS/dPR and 5 μM each of dTTP, dCTP, dGTP and [-^32P]dATP in […]. […] Inhibition of dNTP incorporation/chain termination. The effect of DXG-TP on RT activity was also assessed using the chain termination/dNTP incorporation assay in which inhibition of nascent DNA synthesis (chain termination) was monitored based upon cDNA synthesis as previously described (Arts et al., 1993; J. Biol. Hem. 269:14672-14680 and Gu et al., 1995, Proc. Natl. Acad. Sci. USA 92:2760-2764). HIV-PBS RNA template and dPR DNA primer were used in this system. The RT reactions were performed in […] containing 50 mM Tris (pH 7.8), 75 mM KCl, 10 mM MgCl2, 100 μM of dNTPs. The HIV-PBS RNA template (50 nM) and [−^32P]-ATP labeled oligodeoxynucleotide primer (125 nM) were included in the reaction. The mixture was first denatured at 85° C. for 2 minutes, then cooled to 55° C. for 8 min, and finally cooled to 37° C. at which time recombinant HIV RT was added (42.5 nM). The reactions were allowed to proceed at 37° C. for 60 min in the presence or absence of inhibitors. The transcribed DNA products were separated on a 5% denaturing polyacrylamide gel and visualized by exposure to X-ray film.

wt HIV-1 RT [8] = target: T1, wt HIV-1 RT; assay: Chain elongation/termination assay; type: biochemical; conditions: for chain termination / full-length products, in words: HIV-PBS template, dPR primer, raising inhibitor concentration
Experimental: RT inhibition assay. The inhibition of HIV-1 RT RNA dependent DNA polymerase activity of DXG-TP was assessed under steady-state enzymatic kinetics by employing homopolymeric RNA templates/DNA primers (T/P) and a heteropolymeric RNA template/DNA primer. The heteropolymeric RNA template contains the HIV-1 primer binding sequence, US and R regions (designated as HIV-PBS). […] The oligodeoxynucleotide primer (dPR) is an 18-mer (5′-[…]-3′) which is complementary to the HIV-1 primer binding sequence. […] Inhibition of dNTP incorporation/chain termination. […] HIV-PBS RNA template and dPR DNA primer were used in this system. The RT reactions were performed in […] containing 50 mM Tris (pH 7.8), 75 mM KCl, 10 mM MgCl2, 100 μM of dNTPs. […] The reactions were allowed to proceed at 37° C. for 60 min in the presence or absence of inhibitors. The transcribed DNA products were separated on a 5% denaturing polyacrylamide gel and visualized by exposure to X-ray film.
The chain elongation/termination assay provides a method to directly visualize the products of incorporation of dideoxynucleotide monophosphates into nascent DNA by monitoring the reaction products using polyacrylamide gel electrophoresis. The experiment was performed using wt HIV-1 RT, and HIV-PBS heteropolymeric template, and [^32p]ATP labeled dPR primer in the presence of various concentrations of RT inhibitor. […] As comparison, NNRTI nevirapine was also used in the assay.

[9] = Cytotoxicity, [3H]-thymidine uptake, PBMC; type: cell-based; conditions: human, PHA-stimulated PBMCs
Experimental: as §1

[10] = template/primer poly(rA).oligo(dT)12-18, substrate dTTP

| SMILES | CC50 at 72 h [2] | CC50 at 72 h [3] | CC50 at 72 h [4] | CC50 at 72 h [5] | CC50 at 7 days [6] | IC50 (wt HIV-1 RT [7]; [10]) | chain termination / full-length products, in words (wt HIV-1 RT [8]) | further results |
| --- | --- | --- | --- | --- | --- | --- | --- | --- |
| Cc1cn([C@H]2C[C@H](N=[N+]=[N-])[C@@H](CO)O2)c(=O)[nH]c1=O [AZT, zidovudine, reference compound] | 3000 nM | 5 µM | > 10 µM | 3 µM | 74 µM |  |  | CC50 at 72 h [1]: > 10 µM; EC50 (HIV-1IIIB; Human immunodeficiency virus 1, Jurkat, read-out: EC50, mean values ± SD): 11 ± 7 nM; EC50 (HIV-1IIIB; Human immunodeficiency virus 1, MT2, read-out: EC50, mean values ± SD): 7.6 ± 4.4 nM; EC50 (HIV-1IIIB; Human immunodeficiency virus 1, MT4, read-out: EC50, mean values ± SD): 8 ± 5 nM; EC50 (HIV-1IIIB; Human immunodeficiency virus 1, U-937): 25 nM; EC50 (HIV-1IIIB; Human immunodeficiency virus 1, read-out: EC50, mean values ± SD): 5.1 ± 3 nM |
| Nc1nc2c(ncn2C2COC(COP(=O)(O)OP(=O)(O)OP(=O)(O)O)O2)c(=O)[nH]1 (stereo not shown) [DXG-TP, DXG 5′-triphosphate] |  |  |  |  |  | > 10000 nM | caused increasing chain termination but decreasing full-length products | mode of RT inhibition, in words (wt HIV-1 RT [7]): competition with natural substrate; IC50 (wt HIV-1 RT [7]; template/primer HIV-PBS/dPR, substrate dNTPs, each 5 μM): 62 ± 7 nM; IC50 (wt HIV-1 RT [7]; template/primer poly(rC).oligo(dG)12-15, substrate dGTP): 12 nM; inhibitory effect on RT activity by band intensity, compared, in words (wt HIV-1 RT [8]; cell-free assay): the same as ddGTP and AZT-TP at the same concentrations, but higher than lamivudine-TP |
| Cc1cn([C@H]2CC[C@@H](COP(=O)(O)OP(=O)(O)OP(=O)(O)O)O2)c(=O)[nH]c1=O [ddTTP, reference compound] |  |  |  |  |  | 24 ± 3 nM |  |  |
| Nc1ccn([C@H]2CC[C@@H](CO)O2)c(=O)n1 [ddC, 2′,3′-dideoxycytidine] | 2000 nM | 2 µM | 5 µM | 7 µM | 29 µM |  |  | CC50 at 72 h [9]: 32.5 µM |
| Nc1ccn([C@@H]2CS[C@H](COP(=O)(O)OP(=O)(O)OP(=O)(O)O)O2)c(=O)n1 [lamivudine-TP] |  |  |  |  |  |  | caused increasing chain termination but decreasing full-length products |  |
